This passage reports IC50, HiliSlope and LogIC50 results from patent US12637473B2, “MDM2 protein degraders” (THE REGENTS OF THE UNIVERSITY OF MICHIGAN, priority 2016, dated 2026).

Format in all cases: cell-based
The subject of experiment [1] is RS4; 11 cells transfected shRNA control vector. The experiment is described as follows: Cell growth inhibition by WST assay, shRNA control cells. Set-up: LogIC50: unit not given here. The settings on record: RS4;11 sh Control, 4 days; for IC50: Homo sapiens, 96 h. As to the method:
(§1) RS4; 11 cells with stable shRNA knockdown of p53 or those transfected shRNA control vector were treated with Cpd. A, Cpd. B, Cpd. No. 14, Cpd. No. 21, Cpd. No. 15, and Cpd. No. 22 for 4 days, with a cell concentration of ˜15,000/well. Cell growth inhibition was determined by WST assay. See Table 7 (p53) and Table 8 (control). Significant increases in IC50 of the Compounds of the Disclosure in the p53 knockdown RS4; 11 cells were observed compared with that in the sh control cells. […] The p53 knockdown efficiency was determined by western blot for p53 protein levels with or without treatment of Cpd. A (1 μM) for 2 hours.

Experiment [2] has as its system RS4; 11 cells with stable shRNA knockdown of p53. Description: Cell growth inhibition by WST assay, p53 knockdown cells. Set-up: LogIC50: unit not given here. The conditions noted are these: RS4;11 sh p53, 4 days; for IC50: Homo sapiens, 96 h. The method, then: as §1
The next experiment relates to MV4-11 cell line. Description: CellTiter-Glo Luminescent Cell Viability Assay, cell growth inhibition. The settings on record: Homo sapiens, 96 h, 4 days. The gist of the method:
(§2)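 Cells plated at 2,000/well with serially diluted compounds, incubated 4 days at 37° C, 5% CO2. Viability read by CellTiter-Glo luminescence after 10-20 min at room temperature; IC50 from dose-response fit.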
Background: In ATP-based viability assays light output follows the ATP content of the culture.

The next experiment has as its system RS4; 11 cell line. The experiment is described as above. The settings on record: Homo sapiens, 96 h, 4 days. The gist of the method:
as §2

Each structure is given as a SMILES string.

For the molecule `COCCONC(=O)c1ccc(NC(=O)[C@@H]2NC3(CCCCC3)[C@@]3(C(=O)Nc4cc(Cl)ccc43)[C@H]2c2cccc(Cl)c2F)cc1` [Cpd. B, reference compound], in experiment [1], half-maximal inhibition (IC50) required 85.3 nM, the HiliSlope is −0.9620 and the LogIC50 is −1.069. In experiment [2], the IC50 was found to be 5670 nM, the HiliSlope is −0.7973 and the LogIC50 is 0.7537.

Turning to `O=C1CCC(N2C(=O)c3cccc(NCCCCCCNC(=O)c4ccc(NC(=O)[C@@H]5NC6(CCCCC6)[C@@]6(C(=O)Nc7cc(Cl)ccc76)[C@H]5c5cccc(Cl)c5F)cc4)c3C2=O)C(=O)N1` (stereo partly drawn) [Cpd. No. 11, (3′R,4'S,5′R)-6″-chloro-4′-(3-chloro-2-fluorophenyl)-N-(4-((6-((2-(2,6-dioxopiperidin-3-yl)-1,3-dioxoisoindolin-4-yl)amino)hexyl)carbamoyl)phenyl)-2″-oxodispiro[cyclohexane-1,2′-pyrrolidine-3′,3″-indoline]-5′-carboxamide], the IC50 is 42 nM with MV4-11 cell line and 30 nM with RS4; 11 cell line.

`O=C1CCC(N2C(=O)c3cccc(NCCOCCNC(=O)c4ccc(NC(=O)[C@@H]5NC6(CCCCC6)[C@@]6(C(=O)Nc7cc(Cl)ccc76)[C@H]5c5cccc(Cl)c5F)cc4)c3C2=O)C(=O)N1` (stereo partly drawn) [Cpd. No. 13, (3′R,4'S,5′R)-6″-chloro-4′-(3-chloro-2-fluorophenyl)-N-(4-((2-(2-((2-(2,6-dioxopiperidin-3-yl)-1,3-dioxoisoindolin-4-yl)amino)ethoxy)ethyl)carbamoyl)phenyl)-2″-oxodispiro[cyclohexane-1,2′-pyrrolidine-3′,3″-indoline]-5′-carboxamide]: the IC50 in the experiment with MV4-11 cell line was 5.2 nM; with RS4; 11 cell line, 7.4 nM.

For the molecule `O=C1CCC(N2C(=O)c3cccc(NCCOCCOCCOCCOCCOCCOCCOCCNC(=O)c4ccc(NC(=O)[C@@H]5NC6(CCCCC6)[C@@]6(C(=O)Nc7cc(Cl)ccc76)[C@H]5c5cccc(Cl)c5F)cc4)c3C2=O)C(=O)N1` (stereo partly drawn) [Cpd. No. 16, (3′R,4'S,5′R)-6″-chloro-4′-(3-chloro-2-fluorophenyl)-N-(4-((23-((2-(2,6-dioxopiperidin-3-yl)-1,3-dioxoisoindolin-4-yl)amino)-3,6,9,12,15,18,21-heptaoxatricosyl)carbamoyl)phenyl)-2″-oxodispiro[cyclohexane-1,2′-pyrrolidine-3′,3″-indoline]-5′-carboxamide], the IC50 in the experiment with MV4-11 cell line was determined as 2.7 nM; in the experiment on RS4; 11 cell line, 4.7 nM.

`O=C1CCC(N2C(=O)c3cccc(NCCCOCCCCOCCCNC(=O)c4ccc(NC(=O)[C@@H]5NC6(CCCCC6)[C@@]6(C(=O)Nc7cc(Cl)ccc76)[C@H]5c5cccc(Cl)c5F)cc4)c3C2=O)C(=O)N1` (stereo partly drawn) [Cpd. No. 17, (3′R,4'S,5′R)-6″-chloro-4′-(3-chloro-2-fluorophenyl)-N-(4-((3-(4-(3-((2-(2,6-dioxopiperidin-3-yl)-1,3-dioxoisoindolin-4-yl)amino)propoxy)butoxy)propyl)carbamoyl)phenyl)-2″-oxodispiro[cyclohexane-1,2′-pyrrolidine-3′,3″-indoline]-5′-carboxamide]: the IC50 is 21 nM in the experiment with MV4-11 cell line and 19 nM in the experiment on RS4; 11 cell line.

Regarding `O=C1CCC(N2C(=O)c3cccc(NCCCOCCOCCOCCCNC(=O)c4ccc(NC(=O)[C@@H]5NC6(CCCCC6)[C@@]6(C(=O)Nc7cc(Cl)ccc76)[C@H]5c5cccc(Cl)c5F)cc4)c3C2=O)C(=O)N1` (stereo partly drawn) [Cpd. No. 18, (3′R,4'S,5′R)-6″-chloro-4′-(3-chloro-2-fluorophenyl)-N-(4-((3-(2-(2-(3-((2-(2,6-dioxopiperidin-3-yl)-1,3-dioxoisoindolin-4-yl)amino)propoxy)ethoxy)ethoxy)propyl)carbamoyl)phenyl)-2″-oxodispiro[cyclohexane-1,2′-pyrrolidine-3′,3″-indoline]-5′-carboxamide], the IC50 was 5.2 nM in the experiment on MV4-11 cell line and 7.4 nM with RS4; 11 cell line.

As to `O=C1CCC(N2Cc3c(NCCOCCNC(=O)c4ccc(NC(=O)[C@@H]5NC6(CCCCC6)[C@@]6(C(=O)Nc7cc(Cl)ccc76)[C@H]5c5cccc(Cl)c5F)cc4)cccc3C2=O)C(=O)N1` (stereo partly drawn) [Cpd. No. 20, (3′R,4'S,5′R)-6″-chloro-4′-(3-chloro-2-fluorophenyl)-N-(4-((2-(2-((2-(2,6-dioxopiperidin-3-yl)-1-oxoisoindolin-4-yl)amino)ethoxy)ethyl)carbamoyl)phenyl)-2″-oxodispiro[cyclohexane-1,2′-pyrrolidine-3′,3″-indoline]-5′-carboxamide], the results for the IC50 with MV4-11 cell line and in the experiment on RS4; 11 cell line were 7.6 nM and 8.5 nM, respectively.

In the case of `O=C1CCC(N2Cc3c(NCCOCCOCCNC(=O)c4ccc(NC(=O)[C@@H]5NC6(CCCCC6)[C@@]6(C(=O)Nc7cc(Cl)ccc76)[C@H]5c5cccc(Cl)c5F)cc4)cccc3C2=O)C(=O)N1` (stereo partly drawn) [Cpd. No. 21, (3′R,4'S,5′R)-6″-chloro-4′-(3-chloro-2-fluorophenyl)-N-(4-((2-(2-(2-((2-(2,6-dioxopiperidin-3-yl)-1-oxoisoindolin-4-yl)amino)ethoxy)ethoxy)ethyl)carbamoyl)phenyl)-2″-oxodispiro[cyclohexane-1,2′-pyrrolidine-3′,3″-indoline]-5′-carboxamide], the IC50 in experiment [1] amounted to 13.1 nM; in experiment [2], 4160 nM; in the experiment on MV4-11 cell line, 2 nM; in the experiment with RS4; 11 cell line it was 4.4 nM. The figures for the HiliSlope in experiment [1] and in experiment [2] were −1.448 and −0.4410, respectively. Moreover, the LogIC50 in experiment [1] is −1.882; in experiment [2], 0.6196.

In the case of `O=C1CCC(N2Cc3c(NCCOCCOCCOCCOCCNC(=O)c4ccc(NC(=O)[C@@H]5NC6(CCCCC6)[C@@]6(C(=O)Nc7cc(Cl)ccc76)[C@H]5c5cccc(Cl)c5F)cc4)cccc3C2=O)C(=O)N1` (stereo partly drawn) [Cpd. No. 23, (3′R,4'S,5′R)-6″-chloro-4′-(3-chloro-2-fluorophenyl)-N-(4-((14-((2-(2,6-dioxopiperidin-3-yl)-1-oxoisoindolin-4-yl)amino)-3,6,9,12-tetraoxatetradecyl)carbamoyl)phenyl)-2″-oxodispiro[cyclohexane-1,2′-pyrrolidine-3′,3″-indoline]-5′-carboxamide], the IC50 with MV4-11 cell line is 21 nM; with RS4; 11 cell line it was 19 nM.

As to `O=C1CCC(N2C(=O)c3cccc(NCCOCCOCCNC(=O)c4ccc(NC(=O)[C@@H]5NC6(CCCCC6)[C@@]6(C(=O)Nc7cc(Cl)ccc76)[C@H]5c5cccc(Cl)c5F)nc4)c3C2=O)C(=O)N1` (stereo partly drawn) [Cpd. No. 24, (3′R,4'S,5′R)-6″-chloro-4′-(3-chloro-2-fluorophenyl)-N-(5-((2-(2-(2-((2-(2,6-dioxopiperidin-3-yl)-1,3-dioxoisoindolin-4-yl)amino)ethoxy)ethoxy)ethyl)carbamoyl)pyridin-2-yl)-2″-oxodispiro[cyclohexane-1,2′-pyrrolidine-3′,3″-indoline]-5′-carboxamide], the IC50 in the experiment with MV4-11 cell line worked out at 5 nM; with RS4; 11 cell line it was 7 nM.

Take `CCN1[C@@H](C(=O)NC23CCC(C(=O)NCCCOCCOCCOCCCNC(=O)COc4cccc5c4C(=O)N(C4CCC(=O)NC4=O)C5=O)(CC2)CC3)[C@H](c2cccc(Cl)c2F)[C@]2(C(=O)Nc3cc(Cl)ccc32)C12CCCCC2` (stereo partly drawn) [Cpd. No. 46, (3′R,4'S,5′R)-6″-chloro-4′-(3-chloro-2-fluorophenyl)-N-(4-((1-((2-(2,6-dioxopiperidin-3-yl)-1,3-dioxoisoindolin-4-yl)oxy)-2-oxo-7,10,13-trioxa-3-azahexadecan-16-yl)carbamoyl)bicyclo[2.2.2]octan-1-yl)-1′-ethyl-2″-oxodispiro[cyclohexane-1,2′-pyrrolidine-3′,3″-indoline]-5′-carboxamide]: the IC50 in the experiment on MV4-11 cell line and in the experiment on RS4; 11 cell line was 20 nM each time.

On to `CCN1[C@@H](C(=O)NC23CCC(C(=O)NCCOCCOCCOCCOCC(=O)N[C@H](C(=O)N4C[C@H](O)C[C@H]4C(=O)NCc4ccc(-c5scnc5C)cc4)C(C)(C)C)(CC2)CC3)[C@H](c2cccc(Cl)c2F)[C@]2(C(=O)Nc3cc(Cl)ccc32)C12CCCCC2` [Cpd. No. 48, (3′R,4'S,5′R)-6″-chloro-4′-(3-chloro-2-fluorophenyl)-1′-ethyl-N-(4-(((S)-16-((2S,4R)-4-hydroxy-2-((4-(4-methylthiazol-5-yl)benzyl)carbamoyl)pyrrolidine-1-carbonyl)-17,17-dimethyl-14-oxo-3,6,9,12-tetraoxa-15-azaoctadecyl)carbamoyl)bicyclo[2.2.2]octan-1-yl)-2″-oxodispiro[cyclohexane-1,2′-pyrrolidine-3′,3″-indoline]-5′-carboxamide], for which the IC50 in the experiment on MV4-11 cell line was determined as 130 nM; in the experiment on RS4; 11 cell line it was 190 nM.

For orientation: IC50 means the point on the concentration scale where inhibition reaches its midpoint.
